Experimental data as given in patent US10968214B2, “KRas G12C inhibitors” (Eli Lilly and Company, priority 2018, dated 2021).
pIC50: −log10 of the molar value. Read-outs that look alike come from different tables or passages of the source.

Columns and labels:
[1] = target: T1, constitutive RAS GTPAse activity in H358 cells (Homo sapiens, UniProt P01116, G12C); assay: H358 Cellular Active RAS GTPase ELISA; assay type: cell-based; settings: 2 hr, read-out: RAS-GTP
T1 construct: host or cells: H358 human lung cancer cells
Source text: This assay is used to measure the ability of test compounds to inhibit constitutive RAS GTPAse activity in human lung cancer cells H358 (ATCC CRL-5807). The RAS GTPase ELISA kit (Active Motif Cat #52097) contains a 96-well plate pre-coated with glutathione in order to capture a kit-supplied GST-Raf-RBD protein. Activated RAS (GTP-bound) in cell extracts specifically bind to the Raf-RBD. Bound RAS is detected with a primary antibody that recognizes human KRas. A secondary antibody conjugated with HRP recognizes the primary antibody and a development solution provides a chemiluminescent readout.
H358 cells are plated at 80,000 cells/well in 90 μL serum free media (RPMI 1640, GIBCO) and incubated overnight at 37° C./5% CO2. The next morning, 10 μL of serially-diluted (3-fold) test compounds (500 μM top concentration) and 10 μL of controls (Maximum signal wells: 5% DMSO and Minimum signal wells: 500 μM LSN3429410 as an inhibitor) are added to the cell plate and incubated for 2 hr at 37° C./5% CO2. Complete Lysis/Binding Buffer is prepared containing Protease Inhibitor cocktail and GST-Raf-RBD and stored on ice. One hour before cell plate incubation is completed, 50 μL of GST-Raf-RBD is diluted in lysis/binding buffer, and buffer is added to the ELISA assay plate and which is incubated for 1 hour at 4° C. with gently rocking. After 2 hr, the cells are washed with 100 μL ice-cold PBS and lysed with 100 μL lysis/binding buffer. The cell plate is shaken for 10 min at RT. The cell plate is then centrifuged at 1500 rpm for 10 min at RT. During this time, 1× Wash Buffer is prepared at RT and then is used to wash (3×100 μL) the GST-Raf-RBD coated assay plate. After washing, 50 μL of cell lysate is added to the GST-Raf-RBD coated assay plate and incubated for 1 hour at RT with gentle shaking. During this incubation period, 1× Antibody Binding Buffer is prepared and brought to RT. The assay plate is washed 3×100 μL with 1× Wash Buffer and then 50 μL of Primary Antibody (diluted 1:500 in 1× Antibody Binding buffer) is added. The plate is incubated for 1 hour at RT. The assay plate is washed 3×100 μl with 1× Wash Buffer and then 50 μL of Secondary Antibody (diluted 1:5000 in 1× Antibody Binding buffer) is added and incubated for 1 hour at RT. The assay plate is washed 4×100 μL with 1× Wash buffer and then 50 μL of chemiluminescent working solution is added at RT. The assay plate is then read on an EnVision™ Plate Reader (Perkin Elmer) using a luminescence program.
The signal is converted to percent inhibition using the following equation: % Inhibition=100−[(Test Compound Signal−Median Minimum Signal)/(Median Maximum Signal−Median Minimum Signal)×100]. The Maximum signal is a control well without inhibitor.

KRas G12C = KRas G12C (Homo sapiens, UniProt P01116, G12C); assay: KRas G12C Probe Occupancy TR-FRET Assay; assay type: binding; settings: 60 min incubation of inhibitor with KRas G12C; read-out: TR-FRET 60 min
Procedure: Inhibitors are tested in dose response format from 10 mM stocks in 100% DMSO. The Labycyte Echo® 555 is used to dilute and transfer 100 nL per well containing a 10 point, 2.8-fold serial dilution to an assay plate. […] The signal ratio (em at 665/em at 615) is converted to percent inhibition using the following equation: % Inhibition=100−[(Test Compound Signal−Median Minimum Signal)/(Median Maximum Signal−Median Minimum Signal)×100].

[2] = tested on: phosphorylation of p-ERK1/2 in H358 cells; assay: H358 Cellular Phospho-ERK AlphaLISA; assay type: cell-based, Human; settings: read-out: pERK
Procedure: This assay is used to measure the ability of test compounds to inhibit the phosphorylation of p-ERK1/2, a downstream effector of KRas in Human lung cancer cells H358 (ATCC CRL-5807). Briefly, the AlphaLISA® SureFire® Ultra™ p-ERK 1/2 (Thr202/Tyr204) assay is a sandwich immunoassay for quantitative detection of phospho-ERK 1/2 (phosphorylated on Thr202/Tyr204 in ERK1, or Thr185/Tyr187 in ERK2) in cellular lysates using Alpha Technology (Perkin Elmer Cat #ALSU-PERK-A50K).
H358 cells are plated at 40K cells per well in 100 μL media (RPMI 1640, GIBCO Cat #22400-071) containing 10% FBS (GIBCO Cat #: 10082-147) in a 96 well plate (Costar #3596) and are incubated overnight in humid trays at 37° C., 5% CO2. The next morning, 10 μL of serially-diluted (3-fold) test compounds (50 μM top concentration) and 10 uL of controls (Maximum signal wells: 5% DMSO and Minimum signal wells: 2 μM of N-(3-{3-cyclopropyl-5-[(2-fluoro-4-iodophenyl)amino]-6,8-dimethyl-2,4,7-trioxo-3,4,6,7-tetrahydropyrido[4,3-D]pyrimidin-1(2H)-yl}phenyl)acetamide (trametinib, as a positive control) are added to the cell plate and incubated for 2 hr in humid trays at 37° C./5% CO2. Lysis Buffer is prepared at RT containing a protease and phosphatase inhibitor cocktail. Culture medium is removed by inverting and shaking the cell plate in the sink and then blotting onto a paper towel. Lysis buffer is added to the cell plate (50 μL per well) and the plate is incubated at RT for 10 min on a shaker. For p-ERK detection, acceptor beads are diluted into a suspension mixture with buffer. Using a Starlett liquid handler, 5 μL of acceptor beads and 2 μL of cell lysate are transferred as a single-step in-tip dilution to a 384 well assay plate. The assay plate is sealed with foil and is incubated at RT for 2 hrs. Donor beads are diluted into a suspension mixture with buffer. Using the Starlet, 5 μL of donor beads are added to the assay plate that is then sealed, wrapped with foil. The plate is incubated at RT for 2 hrs in the dark. The assay plate is then read on an EnVision™ Plate Reader (Perkin Elmer) using a luminescence program.
The signal is converted to percent inhibition using the following equation: % Inhibition=100−[(Test Compound Signal−Median Minimum Signal)/(Median Maximum Signal−Median Min Signal)×100]. The Maximum signal is a control well without inhibitor.

EL3187 (PDX) = assay: Anti-tumor growth activity, EL3187 lung PDX; assay type: in vivo; settings: EL3187 Lung PDX; Afatinib 25 mg/kg QDx28

KRas G12C, sequence (P01116 1-188 isoform P01116-2 G12C): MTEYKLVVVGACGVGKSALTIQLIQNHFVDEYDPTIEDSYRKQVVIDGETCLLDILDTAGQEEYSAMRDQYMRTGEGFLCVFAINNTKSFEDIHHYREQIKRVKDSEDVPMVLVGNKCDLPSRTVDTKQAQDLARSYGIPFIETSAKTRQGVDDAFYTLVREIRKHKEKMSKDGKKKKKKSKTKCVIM
T1 sequence (P01116 1-188 isoform P01116-2 G12C): as above

| pIC50 [1] | pIC50 (KRas G12C) | pIC50 ([2]; 2 hr) | pIC50 ([2]; Homo sapiens, NCI-H358, 2 h) | Structure (SMILES) | In Vivo Anti-Tumor Activities (EL3187 (PDX)) |
| --- | --- | --- | --- | --- | --- |
| 7.93 | > 7.72 | 8.40 | – | C=CC(=O)N1CCN(c2ncnc3c(F)c(-c4c(F)cc(F)c5sc(N)nc45)c(Cl)cc23)CC1 (single isomer, unassigned) [Example 6a, 1-{4-[7-(2-Amino-5,7-difluoro-1,3-benzothiazol-4-yl)-6-chloro-8-fluoroquinazolin-4-yl]piperazin-1-yl}prop-2-en-1-one] | – |
| 6.13 | 6.35 | 6.59 | – | C=CC(=O)N1CCN(c2ncnc3c(F)c(-c4c(F)cc(F)c5sc(N)nc45)c(Cl)cc23)CC1 (single isomer, unassigned) [Example 6b, 1-{4-[7-(2-Amino-5,7-difluoro-1,3-benzothiazol-4-yl)-6-chloro-8-fluoroquinazolin-4-yl]piperazin-1-yl}prop-2-en-1-one] | – |
| – | – | – | – | CN(C)C/C=C/C(=O)Nc1cc2c(Nc3ccc(F)c(Cl)c3)ncnc2cc1O[C@H]1CCOC1 [Afatinib, afatinib, reference compound] | 17.1 |
| 6.83 | 7.32 | – | 7.71 | C=CC(=O)N1CCN(c2ncnc3c(Cl)c(-c4ccc(F)c5sc(N)nc45)c(Cl)cc23)CC1 [Example 2, 1-{4-[7-(2-Amino-7-fluoro-1,3-benzothiazol-4-yl)-6,8-dichloroquinazolin-4-yl]piperazin-1-yl}prop-2-en-1-one] | – |
| 6.78 | 7.68 | – | 7.82 | C=CC(=O)N1CCN(c2ncnc3c(F)c(-c4cc(F)c(F)c5sc(N)nc45)c(Cl)cc23)CC1 [Example 3, 1-{4-[7-(2-Amino-6,7-difluoro-1,3-benzothiazol-4-yl)-6-chloro-8-fluoroquinazolin-4-yl]piperazin-1-yl}prop-2-en-1-one] | – |
| 6.63 | 7.60 | – | 7.57 | C=CC(=O)N1CCN(c2ncnc3cc(-c4ccc(F)c5sc(N)nc45)c(Cl)cc23)CC1 [Example 4, 1-{4-[7-(2-Amino-7-fluoro-1,3-benzothiazol-4-yl)-6-chloroquinazolin-4-yl]piperazin-1-yl}prop-2-en-1-one] | – |
| 6.98 | 7.56 | – | 8.01 | C=CC(=O)N1CCN(c2ncnc3c(F)c(-c4cccc5sc(N)nc45)c(Cl)cc23)CC1 [Example 5, 1-{4-[7-(2-Amino-1,3-benzothiazol-4-yl)-6-chloro-8-fluoroquinazolin-4-yl]piperazin-1-yl}prop-2-en-1-one] | – |
| 5.42 | – | – | 5.80 | C=CC(=O)N1CCN(c2ncnc3c(F)c(-c4c(O)cccc4F)c(Cl)cc23)CC1 [reference compound] | – |
| 6.41 | 7.34 | – | 6.69 | C=CC(=O)N1CCN(c2ncnc3c(F)c(-c4cc(O)cc5ccccc45)c(Cl)cc23)CC1 [reference compound] | – |
| < 4.30 | 4.09 | – | < 5.30 | C=CC(=O)N1CCN(c2ncnc3cc(-c4ccc5oc(N)nc5c4)c(Cl)cc23)CC1 [reference compound] | – |
